In ChEMBL document CHEMBL3632568, “Synthesis and biological evaluation of polyalthic acid derivatives for the treatment of neglected diseases” (Bioorg Med Chem Lett, 2015) one finds IC50, IC90 and inhibition data, which are given here for 18 molecules.

What all share (assay type): functional, organism-based
Assay [1] has as its system Leishmania donovani. The assay is described as follows: Antileishmanial activity against axenic amastigote stage of Leishmania donovani assessed as growth inhibition after 72 hrs by Alamar Blue assay.
Assay [2] relates to Trypanosoma brucei. The assay is described as follows: Antitrypanosomal activity against trypamastigote stage of Trypanosoma brucei assessed as growth inhibition after 72 hrs by Alamar Blue assay.
Assay [3] concerns Leishmania donovani. As to the kind of experiment: Antileishmanial activity against promastigote stage of Leishmania donovani assessed as growth inhibition at 0.0128 to 40 ug/ml after 72 hrs by Alamar Blue assay.

≈ marks a conversion by molar mass, not a printed value. Calls of active or inactive are those of the source. No cut-off for these calls is given here. Bounds are passed on as bounds.

For `COCCNC(=O)[C@@]1(C)CCC[C@@]2(C)[C@H](CCc3ccoc3)C(O)(CO)CC[C@@H]21` (some centres not stated), in assay [1], the IC50 is greater than 10 mg/L and the IC90 is greater than 10 mg/L. In addition, in assay [2], the IC50 came to 7.68 mg/L (≈ 18.8 µM) and the IC90 was greater than 10 mg/L. Moreover, the inhibition entry in assay [3] was “inactive”.

On to `C=C1CC[C@H]2[C@@](C)(CCC[C@]2(C)C(=O)N(CC)CC)[C@@H]1CCc1ccoc1`, for which, in assay [1], the IC50 is 5.12 mg/L (≈ 13.8 µM) and the IC90 is 8.75 mg/L (≈ 23.5 µM). For the same molecule, in assay [2], the IC50 worked out at 5 mg/L (≈ 13.5 µM) and the IC90 was 8.82 mg/L (≈ 23.7 µM). The inhibition result in assay [3] was “inactive”.

As to `C=C1CC[C@H]2[C@@](C)(CCC[C@]2(C)C(=O)N2CCN(C)CC2)[C@@H]1CCc1ccoc1`, in assay [1], the IC50 is greater than 10 mg/L and the IC90 is greater than 10 mg/L. For the same molecule, in assay [2], the IC50 was 6.85 mg/L (≈ 17.2 µM) and the IC90 is greater than 10 mg/L. Besides, the inhibition result in assay [3] is “inactive”.

On to `C[C@@]12CCC[C@](C)(C(=O)NCC3CCCCC3)[C@H]1CCC(O)(CO)[C@H]2CCc1ccoc1` (some centres not stated), for which, in assay [1], the IC50 was greater than 10 mg/L and the IC90 was greater than 10 mg/L. In assay [2], the IC50 was 6.51 mg/L (≈ 14.6 µM) and the IC90 came out at 9.15 mg/L (≈ 20.5 µM). In addition, the inhibition result in assay [3] is “inactive”.

Take `C[C@@]12CCC[C@](C)(C(=O)N3CCOCC3)[C@H]1CCC(O)(CO)[C@H]2CCc1ccoc1` (some centres not stated): in assay [1], the half-maximal inhibitory concentration (IC50) was greater than 10 mg/L and the IC90 was greater than 10 mg/L. In addition, in assay [2], the IC50 turned out to be 6.25 mg/L (≈ 14.9 µM) and the IC90 was greater than 10 mg/L. Besides, the inhibition result in assay [3] was “inactive”.

On to `C=C1CC[C@H]2[C@@](C)(CCC[C@]2(C)C(=O)NC2CC2)[C@@H]1CCc1ccoc1`, for which, in assay [1], the concentration for half-maximal inhibition (IC50) was 8.21 mg/L (≈ 23.1 µM) and the IC90 is greater than 10 mg/L. In assay [2], the IC50 was found to be 5.62 mg/L (≈ 15.8 µM) and the IC90 is 8.96 mg/L (≈ 25.2 µM). In assay [3], the inhibition entry is “inactive”.

Turning to `C[C@@H]1[C@H](O)[C@@H](C)/C=C/C=C/C=C/C=C/C=C/C=C/C=C/[C@H](O[C@@H]2O[C@H](C)[C@@H](O)[C@H](N)[C@@H]2O)C[C@@H]2O[C@](O)(C[C@@H](O)C[C@@H](O)[C@H](O)CC[C@@H](O)C[C@@H](O)CC(=O)O[C@H]1C)C[C@H](O)[C@H]2C(=O)O` [AMPHOTERICIN B], in assay [1], the IC50 was found to be 0.195 mg/L (≈ 0.211 µM) and the IC90 is 0.301 mg/L (≈ 0.326 µM). Also, in assay [2], the 50% inhibitory concentration (IC50) worked out at 4.52 mg/L (≈ 4.89 µM) and the IC90 amounted to 10.1 mg/L (≈ 10.9 µM).

Turning to `C=C1CC[C@H]2[C@@](C)(CCC[C@]2(C)C(=O)O)[C@@H]1CCc1ccoc1`, in assay [1], the IC50 was found to be 8.68 mg/L (≈ 27.4 µM) and the IC90 is greater than 10 mg/L. Also, in assay [2], the IC50 worked out at 3.87 mg/L (≈ 12.2 µM) and the IC90 is 8.12 mg/L (≈ 25.7 µM).

`C=C1CC[C@H]2[C@@](C)(CCC[C@]2(C)C(=O)NCCN(C)C)[C@@H]1CCc1ccoc1`: the IC50 in assay [1] and in assay [2] was greater than 10 mg/L in each case. Also, the IC90 in assay [1] and in assay [2] was greater than 10 mg/L each time. Besides, the inhibition result in assay [3] is “inactive”.

Turning to `C=C1CC[C@H]2[C@@](C)(CCC[C@]2(C)C(=O)NCCOC)[C@@H]1CCc1ccoc1`, in assay [1], the IC50 was determined as 6.73 mg/L (≈ 18 µM) and the IC90 was greater than 10 mg/L. Further, in assay [2], the IC50 amounted to 2.58 mg/L (≈ 6.91 µM) and the 90% effect concentration (IC90) turned out to be 4.71 mg/L (≈ 12.6 µM). Also, in assay [3], the inhibition entry is “inactive”.

For `C=C1CC[C@H]2[C@@](C)(CCC[C@]2(C)C(=O)NCCOCCO)[C@@H]1CCc1ccoc1`, in assay [1], the IC50 is greater than 10 mg/L and the IC90 was greater than 10 mg/L. Besides, in assay [2], the IC50 is greater than 10 mg/L and the IC90 is greater than 10 mg/L. Also, the inhibition result in assay [3] was “inactive”.

On to `C=C1CC[C@H]2[C@@](C)(CCC[C@]2(C)C(=O)NC2CCOCC2)[C@@H]1CCc1ccoc1`, for which, in assay [1], the IC50 was greater than 10 mg/L and the IC90 is greater than 10 mg/L. In assay [2], the IC50 is 9.88 mg/L (≈ 24.7 µM) and the IC90 was greater than 10 mg/L. For the same molecule, in assay [3], the inhibition entry was “inactive”.

`C=C1CC[C@H]2[C@@](C)(CCC[C@]2(C)C(=O)NCCCC)[C@@H]1CCc1ccoc1`: the IC50 in assay [1] worked out at 5.93 mg/L (≈ 16 µM); in assay [2], 6.14 mg/L (≈ 16.5 µM). Further, the IC90 in assay [1] is 9.02 mg/L (≈ 24.3 µM); in assay [2], 9.13 mg/L (≈ 24.6 µM). Also, the inhibition entry in assay [3] is “inactive”.

`N=C(N)c1ccc(OCCCCCOc2ccc(C(=N)N)cc2)cc1` [PENTAMIDINE]: in assay [1], the IC50 was determined as 1.89 mg/L (≈ 5.54 µM) and the IC90 was 5.81 mg/L (≈ 17.1 µM). In assay [2], the IC50 is 0.002 mg/L (≈ 0.00587 µM) and the IC90 stood at 0.003 mg/L (≈ 0.00881 µM).

For `C=C1CC[C@H]2[C@@](C)(CCC[C@]2(C)C(=O)NC(C)C)[C@@H]1CCc1ccoc1`, the IC50 was 7.04 mg/L (≈ 19.7 µM) in assay [1] and 2.74 mg/L (≈ 7.66 µM) in assay [2]. The IC90 in assay [1] is greater than 10 mg/L; in assay [2], 4.9 mg/L (≈ 13.7 µM). Also, in assay [3], the inhibition entry is “inactive”.

Take `C=C1CC[C@H]2[C@@](C)(CCC[C@]2(C)C(=O)NCC2CCCCC2)[C@@H]1CCc1ccoc1`: in assay [1], the IC50 was 3.84 mg/L (≈ 9.33 µM) and the IC90 came to 7.75 mg/L (≈ 18.8 µM). Moreover, in assay [2], the IC50 came out at 5.75 mg/L (≈ 14 µM) and the IC90 turned out to be 8.52 mg/L (≈ 20.7 µM). Moreover, the inhibition entry in assay [3] was “inactive”.

As for `C=C1CC[C@H]2[C@@](C)(CCC[C@]2(C)C(=O)N2CCOCC2)[C@@H]1CCc1ccoc1`, in assay [1], the IC50 was 9.9 mg/L (≈ 25.7 µM) and the IC90 was greater than 10 mg/L. In assay [2], the IC50 came out at 4.62 mg/L (≈ 12 µM) and the IC90 stood at 8.3 mg/L (≈ 21.5 µM). Moreover, the inhibition entry in assay [3] is “inactive”.

Consider `C=C1CC[C@H]2[C@@](C)(CCC[C@]2(C)C(=O)NC2CCCCC2)[C@@H]1CCc1ccoc1`, for which, in assay [1], the IC50 was 4.23 mg/L (≈ 10.6 µM) and the IC90 stood at 8.19 mg/L (≈ 20.6 µM). Further, in assay [2], the IC50 is 3.58 mg/L (≈ 9 µM) and the IC90 came to 8.1 mg/L (≈ 20.4 µM). In addition, the inhibition result in assay [3] is “inactive”.
